Results from ChEMBL document CHEMBL1250518, “Nonsteroidal dissociated glucocorticoid agonists containing azaindoles as steroid A-ring mimetics” (J Med Chem, 2010).

How the values were obtained:
Progesterone receptor = molecular target: T1, Progesterone receptor (Homo sapiens, UniProt P06401); assay: Binding affinity to progesterone receptor expressed in baculovirus-infected insect cells using tetramethylrhodamine labeled RU-486 by fluorescence polarization microplate assay
T1 sequence (P06401 whole entry): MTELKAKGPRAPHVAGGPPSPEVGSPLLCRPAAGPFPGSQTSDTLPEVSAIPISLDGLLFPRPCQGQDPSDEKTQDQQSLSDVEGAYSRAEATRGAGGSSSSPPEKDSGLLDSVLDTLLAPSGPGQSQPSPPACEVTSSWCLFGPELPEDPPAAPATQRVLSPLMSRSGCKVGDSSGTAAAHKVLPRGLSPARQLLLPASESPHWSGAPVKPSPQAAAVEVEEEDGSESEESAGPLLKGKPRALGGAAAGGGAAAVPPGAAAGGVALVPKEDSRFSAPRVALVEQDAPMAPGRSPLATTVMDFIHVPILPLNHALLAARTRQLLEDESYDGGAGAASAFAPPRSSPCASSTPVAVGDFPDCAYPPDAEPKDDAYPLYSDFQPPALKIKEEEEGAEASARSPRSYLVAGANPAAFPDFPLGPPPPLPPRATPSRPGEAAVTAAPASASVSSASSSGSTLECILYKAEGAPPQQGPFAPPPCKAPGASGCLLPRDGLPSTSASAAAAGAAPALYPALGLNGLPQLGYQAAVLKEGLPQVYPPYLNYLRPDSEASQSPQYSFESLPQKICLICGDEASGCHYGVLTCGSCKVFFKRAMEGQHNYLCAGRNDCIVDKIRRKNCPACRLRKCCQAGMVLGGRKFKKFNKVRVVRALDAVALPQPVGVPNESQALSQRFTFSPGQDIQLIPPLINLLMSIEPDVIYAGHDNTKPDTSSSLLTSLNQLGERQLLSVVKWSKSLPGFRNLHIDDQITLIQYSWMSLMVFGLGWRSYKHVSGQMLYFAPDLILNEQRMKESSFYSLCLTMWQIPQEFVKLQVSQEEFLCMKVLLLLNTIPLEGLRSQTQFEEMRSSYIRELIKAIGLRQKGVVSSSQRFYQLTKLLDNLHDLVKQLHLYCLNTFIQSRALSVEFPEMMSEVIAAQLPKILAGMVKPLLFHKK

[1] = molecular target: T2, Mineralocorticoid receptor (Homo sapiens, UniProt P08235); assay: Binding affinity to mineralocorticoid receptor expressed in baculovirus-infected insect cells using tetramethylrhodamine labeled Dexamethasone by fluorescence polarization microplate assay
T2 sequence (P08235 whole entry): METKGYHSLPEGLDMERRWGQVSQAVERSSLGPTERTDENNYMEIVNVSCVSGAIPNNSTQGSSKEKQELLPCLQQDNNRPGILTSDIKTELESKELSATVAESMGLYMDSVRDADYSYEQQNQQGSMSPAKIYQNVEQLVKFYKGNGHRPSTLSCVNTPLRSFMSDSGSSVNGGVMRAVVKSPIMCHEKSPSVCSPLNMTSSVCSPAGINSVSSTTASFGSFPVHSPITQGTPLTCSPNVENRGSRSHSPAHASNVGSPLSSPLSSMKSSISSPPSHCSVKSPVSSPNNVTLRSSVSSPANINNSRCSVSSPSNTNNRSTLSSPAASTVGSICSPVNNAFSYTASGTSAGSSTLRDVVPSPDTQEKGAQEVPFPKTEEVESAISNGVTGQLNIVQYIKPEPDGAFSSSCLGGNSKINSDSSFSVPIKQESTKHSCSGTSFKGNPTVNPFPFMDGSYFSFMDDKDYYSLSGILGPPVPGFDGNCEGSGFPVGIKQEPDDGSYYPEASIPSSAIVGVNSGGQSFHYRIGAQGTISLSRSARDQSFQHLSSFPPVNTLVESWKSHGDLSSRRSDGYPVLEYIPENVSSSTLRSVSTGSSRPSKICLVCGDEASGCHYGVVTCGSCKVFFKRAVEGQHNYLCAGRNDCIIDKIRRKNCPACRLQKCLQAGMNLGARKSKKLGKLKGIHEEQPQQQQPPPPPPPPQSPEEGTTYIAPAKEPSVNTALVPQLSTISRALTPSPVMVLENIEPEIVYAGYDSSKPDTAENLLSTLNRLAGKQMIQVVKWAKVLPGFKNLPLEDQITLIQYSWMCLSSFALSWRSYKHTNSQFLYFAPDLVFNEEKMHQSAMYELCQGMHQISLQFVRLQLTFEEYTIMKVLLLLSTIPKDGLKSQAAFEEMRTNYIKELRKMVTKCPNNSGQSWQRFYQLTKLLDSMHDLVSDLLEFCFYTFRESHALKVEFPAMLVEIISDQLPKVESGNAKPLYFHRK

Glucocorticoid receptor [2] = molecular target: T3, Glucocorticoid receptor (Homo sapiens, UniProt P04150); assay: Binding affinity to glucocorticoid receptor expressed in baculovirus-infected insect cells using tetramethylrhodamine labeled Dexamethasone by fluorescence polarization microplate assay
T3 sequence (P04150 whole entry): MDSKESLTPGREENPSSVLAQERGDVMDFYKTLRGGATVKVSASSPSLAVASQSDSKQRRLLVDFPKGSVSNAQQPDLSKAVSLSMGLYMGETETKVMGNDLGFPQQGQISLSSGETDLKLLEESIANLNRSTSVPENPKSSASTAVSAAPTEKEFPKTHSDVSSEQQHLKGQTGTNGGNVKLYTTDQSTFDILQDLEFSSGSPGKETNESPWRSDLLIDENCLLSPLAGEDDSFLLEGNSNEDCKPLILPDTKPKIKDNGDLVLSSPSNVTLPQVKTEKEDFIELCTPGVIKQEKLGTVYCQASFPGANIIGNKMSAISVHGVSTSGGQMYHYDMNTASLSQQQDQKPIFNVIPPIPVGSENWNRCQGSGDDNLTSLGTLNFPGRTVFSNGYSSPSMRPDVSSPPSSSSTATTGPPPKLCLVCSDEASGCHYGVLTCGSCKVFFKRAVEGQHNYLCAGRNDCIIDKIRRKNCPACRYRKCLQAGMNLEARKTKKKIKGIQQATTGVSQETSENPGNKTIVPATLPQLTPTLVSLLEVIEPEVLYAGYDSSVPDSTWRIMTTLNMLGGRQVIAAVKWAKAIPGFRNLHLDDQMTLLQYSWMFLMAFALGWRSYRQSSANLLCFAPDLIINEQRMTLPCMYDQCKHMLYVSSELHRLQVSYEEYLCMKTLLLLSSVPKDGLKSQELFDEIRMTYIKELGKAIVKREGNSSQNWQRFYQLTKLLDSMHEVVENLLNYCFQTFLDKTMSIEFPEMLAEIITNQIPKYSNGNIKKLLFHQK

Glucocorticoid receptor [3] = molecular target: T3, Glucocorticoid receptor; assay: Transrepression activity at glucocorticoid receptor in HFF assessed as inhibition of IL-1-induced IL-6 production after 18 to 24 hrs by ELISA; type: cell-based
Glucocorticoid receptor [4] = molecular target: T3, Glucocorticoid receptor; assay: Transactivation activity at glucocorticoid receptor in HFF assessed as induction of aromatase activity after 18 to 24 hrs by ELISA; type: cell-based
Glucocorticoid receptor [5] = molecular target: T3, Glucocorticoid receptor; assay: Transactivation activity at glucocorticoid receptor in human HeLa cells transfected with luciferase gene linked to MMTV promoter by luciferase assay; type: cell-based

Row | Structure (SMILES) | IC50 (Progesterone receptor) | IC50 [1] | IC50 (Glucocorticoid receptor [2]) | IC50 (Glucocorticoid receptor [3]) | EC50 (Glucocorticoid receptor [4]) | IC50 (Glucocorticoid receptor [5])
1 | COc1ccc(F)cc1C(C)(C)CC(O)(Cc1cc2cccnc2[nH]1)C(F)(F)F (stereo unspecified) | > 2000 nM | 910 nM | 21 nM | > 2000 nM | – | –
2 | COc1ccc(F)cc1C(C)(C)CC(O)(Cn1ccc2ncccc21)C(F)(F)F (stereo unspecified) | 200 nM | 48 nM | 2 nM | 2.8 nM | – | –
3 | COc1ccc(F)cc1C(C)(C)CC(O)(Cc1cc2cnccc2[nH]1)C(F)(F)F (stereo unspecified) | > 2000 nM | 320 nM | 7.3 nM | 8.2 nM | – | –
4 | CC(C)(CC(O)(Cc1cc2ccncc2[nH]1)C(F)(F)F)c1cc(-c2cncnc2)ccc1O (stereo unspecified) | > 2000 nM | 1700 nM | 19 nM | 21 nM | – | –
5 | COc1ccc(-c2ccccc2)cc1C(C)(C)CC(O)(Cc1cc2ccncc2[nH]1)C(F)(F)F (stereo unspecified) | 1200 nM | 480 nM | 12 nM | 40 nM | 69 nM | –
6 | COc1ccc(F)cc1C(C)(C)C[C@](O)(Cc1cc2ccncc2[nH]1)C(F)(F)F | > 2000 nM | > 2000 nM | 1700 nM | 430 nM | – | –
7 | COc1ccc(-c2cncnc2)cc1C(C)(C)CC(O)(Cc1cc2ccncc2[nH]1)C(F)(F)F (stereo unspecified) | > 2000 nM | > 2000 nM | 27 nM | 50 nM | – | –
8 | COc1ccc(F)cc1C(C)(C)CC(O)(Cc1cc2ccccn2n1)C(F)(F)F (stereo unspecified) | > 2000 nM | > 2000 nM | 690 nM | > 2000 nM | – | –
9 | CC(C)(C[C@@](O)(Cc1cc2cnccc2[nH]1)C(F)(F)F)c1cc(F)ccc1O | 1900 nM | 220 nM | 4.7 nM | 3 nM | 45 nM | 56 nM
10 | CC(C)(CC(O)(Cc1cc2ccncc2[nH]1)C(F)(F)F)c1cc(-c2cccnc2)ccc1O (stereo unspecified) | > 2000 nM | 230 nM | 6.6 nM | 23 nM | – | > 2000 nM
11 | COc1ccc(F)cc1C(C)(C)C[C@@](O)(Cc1cc2cnccc2[nH]1)C(F)(F)F | 600 nM | 58 nM | 1.4 nM | 2 nM | 35 nM | 22 nM
12 | C[C@@H]1C[C@H]2[C@@H]3CCC4=CC(=O)C=C[C@]4(C)[C@@]3(F)[C@@H](O)C[C@]2(C)[C@@]1(O)C(=O)CO [DEXAMETHASONE] | > 2000 nM | – | – | – | – | –
13 | COc1ccc(F)cc1C(C)(C)CC(O)(Cc1cc2ncccc2[nH]1)C(F)(F)F (stereo unspecified) | > 2000 nM | > 2000 nM | 23 nM | 120 nM | – | –
14 | CC(C)(CC(O)(Cc1cc2ccncc2[nH]1)C(F)(F)F)c1cc(Cl)cc2c1OCC2 (stereo unspecified) | 1210 nM | 540 nM | 7 nM | 17 nM | 120 nM | > 2000 nM
15 | CC(C)(CC(O)(Cc1cc2ccncc2[nH]1)C(F)(F)F)c1ccccc1 (stereo unspecified) | 190 nM | 810 nM | 9.3 nM | 31 nM | > 2000 nM | > 2000 nM
16 | COc1ccc(F)cc1C(C)(C)CC(O)(Cc1cc2ccncc2o1)C(F)(F)F (stereo unspecified) | > 2000 nM | 1050 nM | 22 nM | > 2000 nM | – | –
17 | COc1ccc(F)cc1C(C)(C)CC(O)(Cn1ccc2ccncc21)C(F)(F)F (stereo unspecified) | > 2000 nM | > 2000 nM | 1400 nM | – | – | –
18 | COc1ccc(F)cc1C(C)(C)CC(O)(Cc1cc2ccccc2[nH]1)C(F)(F)F (stereo unspecified) | 250 nM | 380 nM | 21 nM | 6.6 nM | – | –
19 | CC(C)(CC(O)(Cc1cc2ccncc2[nH]1)C(F)(F)F)c1cccc2c1OCC2 (stereo unspecified) | 130 nM | 780 nM | 4.5 nM | 15 nM | 30 nM | > 2000 nM
20 | COc1ccc(F)cc1C(C)(C)CC(O)(Cc1cc2ccncc2s1)C(F)(F)F (stereo unspecified) | 1300 nM | 220 nM | 7.1 nM | 35 nM | – | –
21 | COc1ccc(F)cc1C(C)(C)CC(O)(Cc1cc2ccncc2[nH]1)C(F)(F)F (stereo unspecified) | > 2000 nM | 580 nM | 4.4 nM | 9.8 nM | – | –
22 | COc1ccc(-c2cccnc2)cc1C(C)(C)CC(O)(Cc1cc2ccncc2[nH]1)C(F)(F)F (stereo unspecified) | > 2000 nM | 390 nM | 8 nM | 30 nM | > 2000 nM | –
23 | CC(C)(CC(O)(Cc1cc2ccncc2[nH]1)C(F)(F)F)c1cc(F)cc2c1OCC2 (stereo unspecified) | 450 nM | 280 nM | 2.3 nM | 9.3 nM | – | > 2000 nM
24 | CC(C)(CC(O)(Cc1cc2ccncc2[nH]1)C(F)(F)F)c1cccc(F)c1 (stereo unspecified) | 8 nM | > 2000 nM | 23 nM | 99 nM | > 2000 nM | –
25 | COc1ccc(F)cc1C(C)(C)CC(O)(Cc1cc2cc[n+]([O-])cc2[nH]1)C(F)(F)F (stereo unspecified) | > 2000 nM | > 2000 nM | 860 nM | – | – | –
26 | CC(C)(CC(O)(Cc1cc2ccncc2[nH]1)C(F)(F)F)c1cc(-c2ccccc2)ccc1O (stereo unspecified) | 1300 nM | 160 nM | 11 nM | 15 nM | 45 nM | 47 nM
